PubChem BioAssay (NCI)
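Compound exposure: 48 hours, 5 concentrations, 96-well plates. TGI marks complete inhibition of growth.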

Columns and labels:
Assay in all cases: DTP human tumour cell line panel, 48 h
[1] = system: 786-0 renal
[2] = system: A498 renal
[3] = system: A549 NSCLC
[4] = system: ACHN renal
[5] = system: CAKI-1 renal
[6] = system: CCRF-CEM leukemia
[7] = system: COLO 205 colon
[8] = system: DMS 114 small cell lung
[9] = system: DMS 273 small cell lung
[10] = system: EKVX NSCLC
[11] = system: HCC-2998 colon
[12] = system: HCT-116 colon
[13] = system: HCT-15 colon
[14] = system: HL-60(TB) leukemia
[15] = system: HOP-62 NSCLC
[16] = system: HOP-92 NSCLC
[17] = system: HT29 colon
[18] = system: K-562 leukemia
[19] = system: KM12 colon
[20] = system: KM20L2 colon
[21] = system: LOX IMVI melanoma
[22] = system: M14 melanoma
[23] = system: M19-MEL melanoma
[24] = system: MALME-3M melanoma
[25] = system: MOLT-4 leukemia
[26] = system: NCI-H226 lung
[27] = system: NCI-H23 lung
[28] = system: NCI-H460 lung
[29] = system: NCI-H522 lung
[30] = system: OVCAR-3 ovarian
[31] = system: OVCAR-4 ovarian
[32] = system: OVCAR-5 ovarian
[33] = system: OVCAR-8 ovarian
[34] = system: RPMI-8226 leukemia
[35] = system: RXF 393 renal
[36] = system: SF-268 CNS
[37] = system: SF-295 CNS
[38] = system: SF-539 CNS
[39] = system: SK-MEL-2 melanoma
[40] = system: SK-MEL-28 melanoma
[41] = system: SK-MEL-5 melanoma
[42] = system: SK-OV-3 ovarian
[43] = system: SN12C renal
[44] = system: SNB-19 CNS
[45] = system: SNB-75 CNS
[46] = system: SR leukemia
[47] = system: SW-620 colon
[48] = system: TK-10 renal
[49] = system: U251 CNS
[50] = system: UACC-257 melanoma
[51] = system: UACC-62 melanoma
[52] = system: UO-31 renal

COc1ccccc1C=NC12CC3CC(CC(C3)C1)C2 gave a TGI [1] greater than 100 µM, a TGI [2] greater than 100 µM and a TGI [3] greater than 100 µM. The TGI [4] was greater than 100 µM, the TGI [5] was greater than 100 µM and the TGI [6] was greater than 100 µM. It also gave a TGI [7] greater than 100 µM, a TGI [8] greater than 10 µM and a TGI [9] greater than 100 µM. For the same compound, the TGI [10] was greater than 100 µM, the TGI [11] was greater than 100 µM and the TGI [12] was greater than 10 µM. It also gave a TGI [13] greater than 100 µM, a TGI [14] greater than 100 µM and a TGI [15] greater than 100 µM. The TGI [16] was greater than 100 µM, the TGI [17] was greater than 100 µM and the TGI [18] was greater than 100 µM. It also gave a TGI [19] greater than 100 µM, a TGI [20] greater than 100 µM and a TGI [21] greater than 100 µM. The TGI [22] was greater than 100 µM, the TGI [23] was greater than 100 µM and the TGI [24] was greater than 100 µM. The TGI [25] was greater than 100 µM, the TGI [26] was greater than 10 µM and the TGI [27] was greater than 100 µM. For the same compound, the TGI [28] was greater than 100 µM, the TGI [29] was greater than 100 µM and the TGI [30] was greater than 100 µM. It also gave a TGI [31] greater than 100 µM, a TGI [32] greater than 100 µM and a TGI [33] greater than 100 µM. It also gave a TGI [34] greater than 100 µM, a TGI [35] greater than 100 µM and a TGI [36] greater than 100 µM. For the same compound, the TGI [37] was greater than 100 µM, the TGI [38] was greater than 100 µM and the TGI [39] was greater than 100 µM. It also gave a TGI [40] greater than 100 µM, a TGI [41] greater than 100 µM and a TGI [42] greater than 100 µM. The TGI [43] was greater than 100 µM, the TGI [44] was greater than 100 µM and the TGI [45] was greater than 100 µM. It also gave a TGI [46] greater than 100 µM, a TGI [47] greater than 100 µM and a TGI [48] greater than 100 µM. It also gave a TGI [49] greater than 100 µM, a TGI [50] greater than 100 µM and a TGI [51] greater than 100 µM. For the same compound, the TGI [52] was greater than 100 µM.
